Source: US9833497B2, “Human originated EGF domain proteins and use of the same” (CHENGDU SOURCEBIO LIMITED-LIABILITY COMPANY, priority 2013, dated 2017)

Experiments:
Format in all cases: cell-based
E. coli DH5α = assay: Antibacterial activity: MIC and growth curve against E. coli DH5α in 96-well plate; conditions: minimal inhibitory concentration against E. coli DH5α; 96-well plate, 5×10^5 CFU/mL, 37° C., judged after 8 h
Summary of the method: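 MIC taken as lowest protein level with no bacterial growth, tracked by A600 every 30 min during 37 °C, 175 rpm culture. Two-fold protein series 50-12.5 μg/mL final, triplicate wells, against 5×10^5 CFU/mL of LB-washed mid-log cells.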

E. coli BL21 = assay: MIC against Gram-negative bacteria: E. coli BL21; conditions: 5×10^5 CFU/mL
Summary of the method: (§1)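 Growth inhibition by human EGF domain proteins was scored in LB liquid culture seeded at 5×10^5 CFU/mL. Protein was applied as a two-fold dilution series in triplicate, with shaking incubation at 37° C; MIC is the lowest concentration giving no growth.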

Pseudomonas aeruginosa = assay: MIC against Gram-negative bacteria: Pseudomonas aeruginosa; conditions: 5×10^5 CFU/mL
Summary of the method: as §1

Klebsiella pneumonia = assay: MIC against Gram-negative bacteria: Klebsiella pneumonia; conditions: 5×10^5 CFU/mL
Summary of the method: as §1

Enterobacter cloacae = assay: MIC against Gram-negative bacteria: Enterobacter cloacae; conditions: 5×10^5 CFU/mL
Summary of the method: as §1

Aeromonas hydrophila = assay: MIC against Gram-negative bacteria: Aeromonas hydrophila; conditions: 5×10^5 CFU/mL
Summary of the method: as §1

Citrobacter diversus = assay: MIC against Gram-negative bacteria: Citrobacter diversus; conditions: 5×10^5 CFU/mL
Summary of the method: as §1

Moraxella catarrhalis = assay: MIC against Gram-negative bacteria: Moraxella catarrhalis; conditions: 5×10^5 CFU/mL
Summary of the method: as §1

Proteus mirabilis = assay: MIC against Gram-negative bacteria: Proteus mirabilis; conditions: 5×10^5 CFU/mL
Summary of the method: as §1

Proteus vulgaris = assay: MIC against Gram-negative bacteria: Proteus vulgaris; conditions: 5×10^5 CFU/mL
Summary of the method: as §1

Serratia marcescens = assay: MIC against Gram-negative bacteria: Serratia marcescens; conditions: 5×10^5 CFU/mL
Summary of the method: as §1

[1] = E. coli BL21, 96-well plate, 37° C., 10 h
[2] = Pseudomonas aeruginosa, 96-well plate, 37° C., 10 h
[3] = Klebsiella pneumonia, 96-well plate, 37° C., 10 h
[4] = Enterobacter cloacae, 96-well plate, 37° C., 10 h
[5] = Aeromonas hydrophila, 96-well plate, 37° C., 10 h
[6] = Citrobacter diversus, 96-well plate, 37° C., 10 h
[7] = Moraxella catarrhalis, 96-well plate, 37° C., 10 h
[8] = Proteus mirabilis, 96-well plate, 37° C., 10 h
[9] = Proteus vulgaris, 96-well plate, 37° C., 10 h
[10] = Serratia marcescens, 96-well plate, 37° C., 10 h
[11] = E. coli BL21, 10 h cultivation at 37° C.
[12] = P. aeruginosa, 10 h cultivation at 37° C.
[13] = K. pneumonia, 10 h cultivation at 37° C.
[14] = E. cloacae, 10 h cultivation at 37° C.
[15] = A. hydrophila, 10 h cultivation at 37° C.
[16] = C. diversus, 10 h cultivation at 37° C.
[17] = M. catarrhalis, 10 h cultivation at 37° C.
[18] = P. mirabilis, 10 h cultivation at 37° C.
[19] = P. vulgaris, 10 h cultivation at 37° C.
[20] = S. marcescens, 10 h cultivation at 37° C.

PRT72 (NKLDLPCPRGWWGNPVCGPCHCAVSKGFDPDCN; listed as Homo sapiens)
12.5 µg/mL: MIC (E. coli DH5α) | MIC (μg/mL) E. coli BL21 (E. coli BL21; [1]) | MIC (μg/mL) K. pneumonia (Klebsiella pneumonia; [3]) | MIC (μg/mL) A. hydrophila (Aeromonas hydrophila; [5]) | MIC (μg/mL) C. diversus (Citrobacter diversus; [6]) | MIC (μg/mL) M. catarrhalis (Moraxella catarrhalis; [7]) | MIC (μg/mL) P. mirabilis (Proteus mirabilis; [8])
100 µg/mL: MIC (μg/mL) S. marcescens (Serratia marcescens; [10])
25 µg/mL: MIC (μg/mL) P. aeruginosa (Pseudomonas aeruginosa; [2]) | MIC (μg/mL) E. cloacae (Enterobacter cloacae; [4]) | MIC (μg/mL) P. vulgaris (Proteus vulgaris; [9])

PRT1331 (EIDPCADGLNGGCHEHATCKMTGPGKHKCECKSHYVGDGLNCE; listed as Homo sapiens)
12.5 µg/mL: MIC against K. pneumonia (Klebsiella pneumonia; [3]) | MIC against A. hydrophila (Aeromonas hydrophila; [5]) | MIC against P. vulgaris (Proteus vulgaris; [9])
50 µg/mL: MIC against E. coli BL21 (E. coli BL21; [1]) | MIC against E. cloacae (Enterobacter cloacae; [4]) | MIC against M. catarrhalis (Moraxella catarrhalis; [7])
25 µg/mL: MIC (E. coli DH5α) | MIC against P. aeruginosa (Pseudomonas aeruginosa; [2]) | MIC against C. diversus (Citrobacter diversus; [6]) | MIC against P. mirabilis (Proteus mirabilis; [8]) | MIC against S. marcescens (Serratia marcescens; [10])

PRT1271 (DTNECSINNGGCQQVCVNTVGSYECQCHPGYKLHWNKKDCV; listed as Homo sapiens)
25 µg/mL: MIC (E. coli DH5α)
50 µg/mL: MIC against E. coli BL21 (E. coli BL21; [1]) | MIC against K. pneumonia (Klebsiella pneumonia; [3]) | MIC against A. hydrophila (Aeromonas hydrophila; [5]) | MIC against M. catarrhalis (Moraxella catarrhalis; [7]) | MIC against P. vulgaris (Proteus vulgaris; [9])
12.5 µg/mL: MIC against P. aeruginosa (Pseudomonas aeruginosa; [2]) | MIC against E. cloacae (Enterobacter cloacae; [4]) | MIC against C. diversus (Citrobacter diversus; [6]) | MIC against P. mirabilis (Proteus mirabilis; [8]) | MIC against S. marcescens (Serratia marcescens; [10])

PRT200 (NFSTCLSSKEGTICSGNGVCSNELKCVCNRHWIGSDCN; listed as Homo sapiens)
12.5 µg/mL: MIC (E. coli DH5α) | MIC (μg/mL) E. cloacae (Enterobacter cloacae; [14]) | MIC (μg/mL) P. mirabilis (Proteus mirabilis; [18]) | MIC (μg/mL) S. marcescens (Serratia marcescens; [20])
25 µg/mL: MIC (μg/mL) E. coli BL21 (E. coli BL21; [11]) | MIC (μg/mL) K. pneumonia (Klebsiella pneumonia; [13]) | MIC (μg/mL) A. hydrophila (Aeromonas hydrophila; [15]) | MIC (μg/mL) M. catarrhalis (Moraxella catarrhalis; [17])
50 µg/mL: MIC (μg/mL) P. aeruginosa (Pseudomonas aeruginosa; [12]) | MIC (μg/mL) C. diversus (Citrobacter diversus; [16]) | MIC (μg/mL) P. vulgaris (Proteus vulgaris; [19])

PRT46 (CQCNGHSTCINNNVCEQCKNLTTGKQCQDCMPGYYGDPTNGGQCTA; listed as Homo sapiens)
100 µg/mL: MIC (μg/mL) S. marcescens (Serratia marcescens; [10])
12.5 µg/mL: MIC (μg/mL) E. coli BL21 (E. coli BL21; [1]) | MIC (μg/mL) K. pneumonia (Klebsiella pneumonia; [3]) | MIC (μg/mL) A. hydrophila (Aeromonas hydrophila; [5]) | MIC (μg/mL) C. diversus (Citrobacter diversus; [6]) | MIC (μg/mL) M. catarrhalis (Moraxella catarrhalis; [7]) | MIC (μg/mL) P. vulgaris (Proteus vulgaris; [9])
50 µg/mL: MIC (μg/mL) P. aeruginosa (Pseudomonas aeruginosa; [2])
25 µg/mL: MIC (E. coli DH5α) | MIC (μg/mL) E. cloacae (Enterobacter cloacae; [4]) | MIC (μg/mL) P. mirabilis (Proteus mirabilis; [8])

PRT1244 (CGSTCPTCVQGSCDTVTGDCVCSAGYWGPSCN; listed as Homo sapiens)
25 µg/mL: MIC against C. diversus (Citrobacter diversus; [6]) | MIC against P. mirabilis (Proteus mirabilis; [8])
50 µg/mL: MIC (E. coli DH5α) | MIC against P. aeruginosa (Pseudomonas aeruginosa; [2]) | MIC against A. hydrophila (Aeromonas hydrophila; [5]) | MIC against P. vulgaris (Proteus vulgaris; [9])
12.5 µg/mL: MIC against E. coli BL21 (E. coli BL21; [1]) | MIC against K. pneumonia (Klebsiella pneumonia; [3]) | MIC against E. cloacae (Enterobacter cloacae; [4]) | MIC against M. catarrhalis (Moraxella catarrhalis; [7]) | MIC against S. marcescens (Serratia marcescens; [10])

PRT15 (GDHPCLPNPCHGGAPCQNLEAGRFHCQCPPGRVGPTCA; listed as Homo sapiens)
50 µg/mL: MIC (μg/mL) E. coli BL21 (E. coli BL21; [1]) | MIC (μg/mL) E. cloacae (Enterobacter cloacae; [4])
12.5 µg/mL: MIC (μg/mL) K. pneumonia (Klebsiella pneumonia; [3]) | MIC (μg/mL) A. hydrophila (Aeromonas hydrophila; [5]) | MIC (μg/mL) M. catarrhalis (Moraxella catarrhalis; [7]) | MIC (μg/mL) P. mirabilis (Proteus mirabilis; [8]) | MIC (μg/mL) P. vulgaris (Proteus vulgaris; [9])
25 µg/mL: MIC (E. coli DH5α) | MIC (μg/mL) P. aeruginosa (Pseudomonas aeruginosa; [2]) | MIC (μg/mL) C. diversus (Citrobacter diversus; [6]) | MIC (μg/mL) S. marcescens (Serratia marcescens; [10])

PRT668 (DINECRHPGTCPDGRCVNSPGSYTCLACEEGYRGQSGSCV; listed as Homo sapiens)
50 µg/mL: MIC E. coli BL21 (E. coli BL21; 96-well plate, 37° C., 10 h) | MIC K. pneumonia (Klebsiella pneumonia; 96-well plate, 37° C., 10 h) | MIC A. hydrophila (Aeromonas hydrophila; 96-well plate, 37° C., 10 h) | MIC P. vulgaris (Proteus vulgaris; 96-well plate, 37° C., 10 h)
12.5 µg/mL: MIC (E. coli DH5α) | MIC P. aeruginosa (Pseudomonas aeruginosa; 96-well plate, 37° C., 10 h) | MIC E. cloacae (Enterobacter cloacae; 96-well plate, 37° C., 10 h)
25 µg/mL: MIC M. catarrhalis (Moraxella catarrhalis; 96-well plate, 37° C., 10 h) | MIC P. mirabilis (Proteus mirabilis; 96-well plate, 37° C., 10 h)
100 µg/mL: MIC C. diversus (Citrobacter diversus; 96-well plate, 37° C., 10 h) | MIC S. marcescens (Serratia marcescens; 96-well plate, 37° C., 10 h)

PRT851 (DELDCGPSNCSQHGLCTETGCRCDAGWTGSNCS; listed as Homo sapiens)
25 µg/mL: MIC (E. coli DH5α) | MIC (μg/mL) P. aeruginosa (Pseudomonas aeruginosa; [12]) | MIC (μg/mL) P. mirabilis (Proteus mirabilis; [18]) | MIC (μg/mL) S. marcescens (Serratia marcescens; [20])
12.5 µg/mL: MIC (μg/mL) E. coli BL21 (E. coli BL21; [11]) | MIC (μg/mL) K. pneumonia (Klebsiella pneumonia; [13]) | MIC (μg/mL) E. cloacae (Enterobacter cloacae; [14]) | MIC (μg/mL) A. hydrophila (Aeromonas hydrophila; [15]) | MIC (μg/mL) C. diversus (Citrobacter diversus; [16]) | MIC (μg/mL) M. catarrhalis (Moraxella catarrhalis; [17]) | MIC (μg/mL) P. vulgaris (Proteus vulgaris; [19])

PRT789 (YGNDCHQRCQCQNGATCDHVTGECRCPPGYTGAFCE; listed as Homo sapiens)
50 µg/mL: MIC (μg/mL) E. coli BL21 (E. coli BL21; [11]) | MIC (μg/mL) E. cloacae (Enterobacter cloacae; [14]) | MIC (μg/mL) P. mirabilis (Proteus mirabilis; [18])
25 µg/mL: MIC (E. coli DH5α) | MIC (μg/mL) P. aeruginosa (Pseudomonas aeruginosa; [12]) | MIC (μg/mL) C. diversus (Citrobacter diversus; [16]) | MIC (μg/mL) M. catarrhalis (Moraxella catarrhalis; [17]) | MIC (μg/mL) P. vulgaris (Proteus vulgaris; [19])
12.5 µg/mL: MIC (μg/mL) K. pneumonia (Klebsiella pneumonia; [13]) | MIC (μg/mL) A. hydrophila (Aeromonas hydrophila; [15]) | MIC (μg/mL) S. marcescens (Serratia marcescens; [20])

PRT424 (DINECVTDLHTCSRGEHCVNTLGSFHCYKALTCEPGYALKDGECE; listed as Homo sapiens)
12.5 µg/mL: MIC (Klebsiella pneumonia; [13]) | MIC (Moraxella catarrhalis; [17])
50 µg/mL: MIC (E. coli BL21; [11]) | MIC (Aeromonas hydrophila; [15]) | MIC (Proteus vulgaris; [19])
25 µg/mL: MIC (E. coli DH5α) | MIC (Pseudomonas aeruginosa; [12]) | MIC (Enterobacter cloacae; [14]) | MIC (Citrobacter diversus; [16]) | MIC (Proteus mirabilis; [18]) | MIC (Serratia marcescens; [20])

PRT837 (RFSLCPGGCQSHGQCQPPGVCACEPGWGGPD; listed as Homo sapiens)
25 µg/mL: MIC (E. coli DH5α) | MIC (μg/mL) P. aeruginosa (Pseudomonas aeruginosa; [12]) | MIC (μg/mL) K. pneumonia (Klebsiella pneumonia; [13]) | MIC (μg/mL) A. hydrophila (Aeromonas hydrophila; [15]) | MIC (μg/mL) M. catarrhalis (Moraxella catarrhalis; [17])
12.5 µg/mL: MIC (μg/mL) E. coli BL21 (E. coli BL21; [11]) | MIC (μg/mL) E. cloacae (Enterobacter cloacae; [14]) | MIC (μg/mL) C. diversus (Citrobacter diversus; [16]) | MIC (μg/mL) P. mirabilis (Proteus mirabilis; [18]) | MIC (μg/mL) P. vulgaris (Proteus vulgaris; [19]) | MIC (μg/mL) S. marcescens (Serratia marcescens; [20])

PRT132 (ISDRCLPNYCEHGGECSQSWSTFHCNCTNTGYRGATCH; listed as Homo sapiens)
12.5 µg/mL: MIC (μg/mL) E. coli BL21 (E. coli BL21; [1]) | MIC (μg/mL) P. aeruginosa (Pseudomonas aeruginosa; [2]) | MIC (μg/mL) K. pneumonia (Klebsiella pneumonia; [3]) | MIC (μg/mL) M. catarrhalis (Moraxella catarrhalis; [7]) | MIC (μg/mL) S. marcescens (Serratia marcescens; [10])
50 µg/mL: MIC (μg/mL) A. hydrophila (Aeromonas hydrophila; [5]) | MIC (μg/mL) P. vulgaris (Proteus vulgaris; [9])
25 µg/mL: MIC (E. coli DH5α) | MIC (μg/mL) E. cloacae (Enterobacter cloacae; [4]) | MIC (μg/mL) C. diversus (Citrobacter diversus; [6]) | MIC (μg/mL) P. mirabilis (Proteus mirabilis; [8])
